Laboratory results published in patent publication US9657014B2, “Substituted 1,6-naphthyridines” (Hoffmann-La Roche Inc., priority 2012, dated 2017).

These molecules were tested on human embryonic stem cell derived neural stem cells (NSCs) (assay: Neural stem cell proliferation assay (neurogenesis assay)). Conditions: Homo sapiens, Neural stem cell, 96 h; Table 1, novel compounds; concentration at which 150% activity of control (100%) is reached; ATP levels (CellTiterGlo) after 4 days incubation.
Type: cell-based
Procedure, shortened: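 NSCs derived from human ES cells by dual SMAD inhibition, seeded on polyornithin/laminin, dosed 4 h later (11 points, 8 μM to 8 nM). After 4 days at 37° C, ATP luminescence read; response = compound/medium control ×100, EC150 = concentration giving 150% of control.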

SMILES	EC (150% of control)
COCc1cccc(-c2cncc3ccc(C(N)=O)nc23)c1 [Example 100, 8-(3-(Methoxymethyl)phenyl)-1,6-naphthyridine-2-carboxamide]	0.02 µM
O=C(NCc1ccccc1)c1ccc2cncc(-c3ccccc3Cl)c2n1 [Example 15, N-Benzyl-8-(2-chlorophenyl)-1,6-naphthyridine-2-carboxamide]	0.58 µM
CC(NC(=O)c1ccc2cncc(-c3ccc(F)cc3F)c2n1)c1ccc(S(C)(=O)=O)cc1 (stereo not drawn) [Example 110, 8-(2,4-Difluorophenyl)-N-(1-(4-(methylsulfonyl)phenyl)ethyl)-1,6-naphthyridine-2-carboxamide]	0.49 µM
COCCNC(=O)c1ccc2cncc(Br)c2n1 [Example 1, 8-Bromo-N-(2-methoxyethyl)-1,6-naphthyridine-2-carboxamide]	1.2 µM
CC(C)(C)CNC(=O)c1ccc2cncc(-c3cccc(F)c3)c2n1 [Example 119, 8-(3-Fluorophenyl)-N-neopentyl-1,6-naphthyridine-2-carboxamide]	0.27 µM
CCCCCCNC(=O)c1ccc2cncc(-c3ccc(Cl)cc3)c2n1 [Example 145, 8-(4-Chlorophenyl)-N-hexyl-1,6-naphthyridine-2-carboxamide]	0.21 µM
O=C(Nc1cccnc1)c1ccc2cncc(-c3ccc(Cl)cc3)c2n1 [Example 54, 8-(4-Chlorophenyl)-N-(pyridin-3-yl)-1,6-naphthyridine-2-carboxamide]	0.8 µM
O=C(Nc1ccccc1)c1ccc2cncc(-c3ccc(Cl)cc3)c2n1 [Example 53, 8-(4-Chlorophenyl)-N-phenyl-1,6-naphthyridine-2-carboxamide]	0.23 µM
CS(=O)(=O)CCNC(=O)c1ccc2cncc(-c3ccc(F)c(F)c3)c2n1 [Example 137, 8-(3,4-Difluorophenyl)-N-(2-(methylsulfonyl)ethyl)-1,6-naphthyridine-2-carboxamide]	0.35 µM
COCCNC(=O)c1ccc2cncc(-c3ccncc3)c2n1 [Example 18, N-(2-Methoxyethyl)-8-(pyridin-4-yl)-1,6-naphthyridine-2-carboxamide]	0.31 µM
O=C(NCc1ccncc1)c1ccc2cncc(-c3cccc(Cl)c3)c2n1 [Example 29, 8-(3-Chlorophenyl)-N-(pyridin-4-ylmethyl)-1,6-naphthyridine-2-carboxamide]	0.51 µM
O=C(NCc1ccncc1)c1ccc2cncc(-c3ccc(Cl)cc3)c2n1 [Example 28, 8-(4-Chlorophenyl)-N-(pyridin-4-ylmethyl)-1,6-naphthyridine-2-carboxamide]	0.1 µM
Cc1ccnc(-c2cncc3ccc(C(=O)NCc4ccccc4)nc23)c1 [Example 24, N-Benzyl-8-(4-methylpyridin-2-yl)-1,6-naphthyridine-2-carboxamide]	0.94 µM
COCCNC(=O)c1ccc2cncc(-c3cccnc3)c2n1 [Example 19, N-(2-methoxyethyl)-8-(pyridin-3-yl)-1,6-naphthyridine-2-carboxamide]	0.49 µM
CC(C)(C)NC(=O)c1ccc2cncc(-c3ccc(Cl)cc3)c2n1 [Example 69, N-tert-Butyl-8-(4-chlorophenyl)-1,6-naphthyridine-2-carboxamide]	0.32 µM
CN1CCN(C(=O)c2ccc3cncc(-c4ccc(Cl)cc4)c3n2)CC1 [Example 73, (8-(4-Chlorophenyl)-1,6-naphthyridin-2-yl)(4-methylpiperazin-1-yl)methanone]	0.64 µM
O=C(NCc1ccncn1)c1ccc2cncc(-c3ccc(Cl)cc3)c2n1 [Example 96, 8-(4-Chlorophenyl)-N-(pyrimidin-4-ylmethyl)-1,6-naphthyridine-2-carboxamide]	0.17 µM
COc1cccc(-c2cncc3ccc(C(=O)NCc4ccncc4)nc23)c1 [Example 26, 8-(3-Methoxyphenyl)-N-(pyridin-4-ylmethyl)-1,6-naphthyridine-2-carboxamide]	0.28 µM
CC(C)(C)OC(=O)N1CCN(C(=O)c2ccc3cncc(-c4ccc(Cl)cc4)c3n2)CC1 [Example 58, tert-Butyl 4-(8-(4-chlorophenyl)-1,6-naphthyridine-2-carbonyl)piperazine-1-carboxylate]	1.1 µM
NC(=O)c1ccc2cncc(-c3cccc(N4CCOCC4)c3)c2n1 [Example 93, 8-(3-Morpholinophenyl)-1,6-naphthyridine-2-carboxamide]	0.21 µM
COCCNC(=O)c1ccc2cnccc2n1 [Example 4, N-(2-Methoxyethyl)-1,6-naphthyridine-2-carboxamide]	0.5 µM

SMILES	EC (150% of control)
Cc1cc2cncc(-c3ccc(F)cc3)c2nc1C(N)=O [Example 153, 8-(4-Fluorophenyl)-3-methyl-1,6-naphthyridine-2-carboxamide]	0.79 µM
Cn1nccc1-c1cncc2ccc(C(N)=O)nc12 [Example 99, 8-(1-Methyl-1H-pyrazol-5-yl)-1,6-naphthyridine-2-carboxamide]	2.2 µM
O=C(c1ccc2cncc(-c3ccc(Cl)cc3)c2n1)N1CCNCC1 [Example 61, (8-(4-Chlorophenyl)-1,6-naphthyridin-2-yl)(piperazin-1-yl)methanone]	3.15 µM
CS(=O)(=O)c1ccccc1CNC(=O)c1ccc2cncc(-c3ccc(Cl)cc3)c2n1 [Example 132, 8-(4-Chlorophenyl)-N-(2-(methylsulfonyl)benzyl)-1,6-naphthyridine-2-carboxamide]	0.03 µM
O=C(NCc1ccccc1)c1ccc2cncc(-c3cccnc3)c2n1 [Example 17, N-Benzyl-8-(pyridin-3-yl)-1,6-naphthyridine-2-carboxamide]	0.11 µM
CC(C)(C)CNC(=O)c1ccc2cncc(-c3ccc(F)cc3F)c2n1 [Example 120, 8-(2,4-Difluorophenyl)-N-neopentyl-1,6-naphthyridine-2-carboxamide]	0.08 µM
O=C(NCCCn1ccnc1)c1ccc2cncc(-c3ccccc3Cl)c2n1 [Example 40, N-(3-(1H-Imidazol-1-yl)propyl)-8-(2-chlorophenyl)-1,6-naphthyridine-2-carboxamide]	0.69 µM
COCCNC(=O)c1ccc2cncc(-c3ccccc3OC)c2n1 [Example 5, N-(2-Methoxyethyl)-8-(2-methoxyphenyl)-1,6-naphthyridine-2-carboxamide]	0.26 µM
CC(NC(=O)c1ccc2cncc(-c3ccc(Cl)c(F)c3)c2n1)C(C)(C)O (stereo not drawn) [Example 170, 8-(4-Chloro-3-fluorophenyl)-N-(3-hydroxy-3-methylbutan-2-yl)-1,6-naphthyridine-2-carboxamide]	0.25 µM
NC(=O)c1ccc2cncc(-c3ccc(OCC(F)(F)F)cc3)c2n1 [Example 165, 8-(4-(2,2,2-Trifluoroethoxyl)phenyl)-1,6-naphthyridine-2-carboxamide]	0.01 µM
COCc1ccc(-c2cncc3ccc(C(N)=O)nc23)cc1 [Example 104, 8-(4-(Methoxymethyl)phenyl)-1,6-naphthyridine-2-carboxamide]	0.02 µM
COc1ccccc1-c1cncc2ccc(C(=O)NCc3ccncc3)nc12 [Example 27, 8-(2-Methoxyphenyl)-N-(pyridin-4-ylmethyl)-1,6-naphthyridine-2-carboxamide]	0.56 µM
O=C(NCc1ccccc1)c1ccc2cncc(-c3ccncc3)c2n1 [Example 16, N-Benzyl-8-(pyridin-4-yl)-1,6-naphthyridine-2-carboxamide]	0.04 µM
NC(=O)c1ccc2cncc(-c3ccc(N4CCOCC4)cc3)c2n1 [Example 94, 8-(4-Morpholinophenyl)-1,6-naphthyridine-2-carboxamide]	0.01 µM
NC(=O)c1ccc2cncc(-c3cc(F)c(F)c(F)c3)c2n1 [Example 84, 8-(3,4,5-Trifluorophenyl)-1,6-naphthyridine-2-carboxamide]	0.25 µM
COc1ccccc1-c1cncc2ccc(C(=O)NCCCn3ccnc3)nc12 [Example 39, N-(3-(1H-Imidazol-1-yl)propyl)-8-(2-methoxyphenyl)-1,6-naphthyridine-2-carboxamide]	0.74 µM
O=C(NCc1ccccc1)c1ccc2cncc(Br)c2n1 [Example 10, N-Benzyl-8-bromo-1,6-naphthyridine-2-carboxamide]	0.76 µM
CS(=O)(=O)c1ccccc1-c1cncc2ccc(C(N)=O)nc12 [Example 88, 8-(2-(Methylsulfonyl)phenyl)-1,6-naphthyridine-2-carboxamide]	0.5 µM
CC(C)(C)CNC(=O)c1ccc2cncc(-c3cc(F)ccc3F)c2n1 [Example 122, 8-(2,5-Difluorophenyl)-N-neopentyl-1,6-naphthyridine-2-carboxamide]	0.12 µM
COCCNC(=O)c1ccc2cncc(-c3cccc(Cl)c3)c2n1 [Example 7, 8-(3-Chlorophenyl)-N-(2-methoxyethyl)-1,6-naphthyridine-2-carboxamide]	0.32 µM

Same assay, conditions: Homo sapiens, Neural stem cell, 96 h; Table 2, known compounds; concentration at which 150% activity of control (100%) is reached; ATP levels (CellTiterGlo) after 4 days incubation

SMILES	EC (150% of control)
COCCNC(=O)c1ccc2cncc(-c3ccccc3)c2n1 [Example 204, 8-Phenyl-[1,6]naphthyridine-2-carboxylic acid (2-methoxy-ethyl)-amide]	0.2 µM
COc1ccc(-c2cncc3ccc(C(=O)NCc4ccncc4)nc23)cc1 [Example 181, 8-(4-Methoxy-phenyl)-[1,6]naphthyridine-2-carboxylic acid (pyridin-4-ylmethyl)-amide]	0.04 µM
O=C(c1ccc2cncc(-c3cc4ccccc4o3)c2n1)N1CCCCC1 [Example 205, (8-Benzofuran-2-yl-[1,6]naphthyridin-2-yl)-piperidin-1-yl-methanone]	3.5 µM
O=C(NCCCn1ccnc1)c1ccc2cncc(-c3ccsc3)c2n1 [Example 197, 8-Thiophen-3-yl-[1,6]naphthyridine-2-carboxylic acid (3-imidazol-1-yl-propyl)-amide]	1.98 µM
